Source: patent publication US8680052B1, “Methods of treating, reducing the incidence of, and/or preventing ischemic events” (The Medicines Company, priority 2013, dated 2014)

Columns and labels:
P2Y12 receptor = molecular target: T1, P2Y12 receptor (Homo sapiens, UniProt Q9H244); experiment: Example 2 substudy: platelet function by VerifyNow P2Y12 Assay; format: in vivo
T1 construct: from tissue; host or cells: platelets in whole blood of patients
Experimental: Platelet function parameters were measured using the VerifyNow® P2Y12 Assay (Accumetrics, San Diego, Calif.). Samples were taken before study drug administration, at approximately 2 hours (during cangrelor/placebo infusion), and 10 hours or next day following randomization.

platelets = experiment: Example 4: light transmission aggregometry (LTA) induced by 5 and 20 μM ADP; format: in vivo, human
Experimental: The study involved 12 patients who met the criteria of being 18-75 years of age, having coronary artery disease (CAD) documented by a previous MI or coronary revascularization, and taking 81 mg of aspirin daily. […] Prohibited concomitant medications included strong and potent CYP3A inhibitors, simvastatin and lovastatin at doses more than 40 mg/day, omeprazole or esomeprazole, and digoxin. Use of non-steroidal anti-inflammatory agents was discouraged during study participation but not prohibited.
Each patient was administered a 30 μg/kg bolus of cangrelor followed immediately by a 2 hr infusion at a rate of 4.0 μg/kg/min. A loading dose of ticagrelor (180 mg) was given after 0.5 hr or 1.25 hr (n=6 for each). Blood for pharmacodynamic platelet function studies was taken after 0.5 or 1.25 hr (corresponding to the time of ticagrelor load, n=6 for each), and then at 1.75, 2, 2.25, 2.5, 2.75, 3, 4, and 5.25 hr. Patients were assigned randomly to receive either 6 (n=6) or 7 (n=6) doses of ticagrelor to be taken every 12 hours following the discontinuation of the infusion of cangrelor. On study day 5, each patient was administered a 30 μg/kg bolus of cangrelor followed immediately by a 2 hr infusion at a rate of 4.0 μg/kg/min. Blood for pharmacodynamic assessment was taken after 1 and 2 hr. Adverse events were queried throughout study participation that ended with a telephone interview performed on study day 10-12.
Pharmacodynamic assessment included light transmission aggregometry (LTA), VerifyNow® P2Y12 assay, vasodilator-stimulated phosphoprotein (VASP) index, and platelet activation measured with the use of flow cytometry. Assessment of LTA, VerifyNow®, and platelet activation with the use of flow cytometry was performed within 30 min of blood being taken. In the case of flow cytometry, samples were processed to fixation and then batched for analysis. For VASP, index samples were batched and processed as recommended by the vendor within 2 h of blood being taken. This approach limited the time from fixation of VASP index to flow analysis to less than 1 h.
LTA induced by 5 μM and 20 μM adenosine diphosphate (ADP) was quantified ex vivo (i.e. in non-adjusted platelet rich plasma). Platelet-poor plasma was set as 100% aggregation, and both maximal (peak) and terminal (at 300 s) aggregation were measured with a PAP4 aggregometer (BioData, Horsham, Pa.). VerifyNow® P2Y12 assay (Accumetrics Inc, San Diego, Calif.) that measures the effects of drugs on the P2Y12 receptor by activating platelets with prostaglandin El in addition to ADP was used in accordance with the instructions provided by the manufacturer. Platelet reactivity was expressed in P2Y12 reaction units (PRU). Activation of platelets was identified with the use of flow cytometry as previously described.^17. And to determine the VASP index, a commercially available kit (Diagnostica Stago, Inc, Parsippany NJ) was used. ^17 Schneider D J, Sobel B E. Streamlining the design of promising clinical trials: in-vitro testing of antithrombotic regimens and multiple agonists of platelet activation. Coron Artery Dis. 2009; 20:175-8.

[1] = reference 5.25 h, Ticagrelor at 0.5 h
[2] = reference 5.25 h, Ticagrelor at 1.25 h
[3] = ticagrelor at 0.5 hr, 1.75 hr later (at 2.25 hr)
[4] = ticagrelor at 1.25 hr, 1.75 hr after the loading dose (at 3.0 hr)

T1 sequence (Q9H244 whole entry): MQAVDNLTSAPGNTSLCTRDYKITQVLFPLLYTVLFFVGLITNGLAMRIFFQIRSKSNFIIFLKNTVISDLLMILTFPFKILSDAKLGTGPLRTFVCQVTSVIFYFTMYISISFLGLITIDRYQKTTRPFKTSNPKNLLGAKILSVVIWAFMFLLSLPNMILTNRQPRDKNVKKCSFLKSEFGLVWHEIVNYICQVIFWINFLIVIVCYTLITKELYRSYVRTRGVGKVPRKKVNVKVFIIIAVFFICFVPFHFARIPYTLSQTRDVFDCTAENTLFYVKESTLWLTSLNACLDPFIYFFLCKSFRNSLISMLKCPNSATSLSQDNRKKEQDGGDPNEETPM

COC(=O)[C@H](c1ccccc1Cl)N1CCc2sccc2C1 [Clopidogrel, clopidogrel, reference compound]
median PRU (VerifyNow P2Y12 assay) (P2Y12 receptor; 12-24 hours after discontinuation of the cangrelor infusion): 206 PRU | median PRU (VerifyNow P2Y12 assay) (P2Y12 receptor; during the study drug infusion (approx. 2 hours)): 277 PRU

CCCSc1nc(N[C@@H]2C[C@H]2c2ccc(F)c(F)c2)c2nnn([C@@H]3C[C@H](OCCO)[C@@H](O)[C@H]3O)c2n1 [ticagrelor]
IPA, 5 μM ADP, LTA (platelets; 2.25 h, All): 87 ± 8% | IPA, 20 μM ADP, LTA (platelets; 2.25 h, All): 83 ± 14% | PR, 5 μM ADP, LTA (platelets; 2.25 h, All): 7 ± 5% | PR, 20 μM ADP, LTA (platelets; 2.25 h, All): 12 ± 11% | IPA, 5 μM ADP, LTA (platelets; 2.25 h, Ticagrelor at 0.5 h): 84 ± 10% | IPA, 20 μM ADP, LTA (platelets; 2.25 h, Ticagrelor at 0.5 h): 82 ± 13% | PR, 5 μM ADP, LTA (platelets; 2.25 h, Ticagrelor at 0.5 h): 7.7 ± 5.9% | PR, 20 μM ADP, LTA (platelets; 2.25 h, Ticagrelor at 0.5 h): 13 ± 9.3% | IPA, 5 μM ADP, LTA (platelets; 2.25 h, Ticagrelor at 1.25 h): 89 ± 5% | IPA, 20 μM ADP, LTA (platelets; 2.25 h, Ticagrelor at 1.25 h): 84 ± 17% | PR, 5 μM ADP, LTA (platelets; 2.25 h, Ticagrelor at 1.25 h): 5.3 ± 3.6% | PR, 20 μM ADP, LTA (platelets; 2.25 h, Ticagrelor at 1.25 h): 11 ± 12% | IPA, 5 μM ADP, LTA (platelets; 2.5 h, All): 79 ± 15% | IPA, 20 μM ADP, LTA (platelets; 2.5 h, All): 72 ± 26% | PR, 5 μM ADP, LTA (platelets; 2.5 h, All): 10 ± 7% | PR, 20 μM ADP, LTA (platelets; 2.5 h, All): 19 ± 16% | IPA, 5 μM ADP, LTA (platelets; 2.5 h, Ticagrelor at 0.5 h): 82 ± 13% | IPA, 20 μM ADP, LTA (platelets; 2.5 h, Ticagrelor at 0.5 h): 78 ± 21% | PR, 5 μM ADP, LTA (platelets; 2.5 h, Ticagrelor at 0.5 h): 10 ± 5.7% | PR, 20 μM ADP, LTA (platelets; 2.5 h, Ticagrelor at 0.5 h): 16 ± 15% | IPA, 5 μM ADP, LTA (platelets; 2.5 h, Ticagrelor at 1.25 h): 76 ± 18% | IPA, 20 μM ADP, LTA (platelets; 2.5 h, Ticagrelor at 1.25 h): 65 ± 30% | PR, 5 μM ADP, LTA (platelets; 2.5 h, Ticagrelor at 1.25 h): 11 ± 9% | PR, 20 μM ADP, LTA (platelets; 2.5 h, Ticagrelor at 1.25 h): 21 ± 17% | IPA, 5 μM ADP, LTA (platelets; 2.75 h, All): 86 ± 11% | IPA, 20 μM ADP, LTA (platelets; 2.75 h, All): 86 ± 15% | PR, 5 μM ADP, LTA (platelets; 2.75 h, All): 5.8 ± 3% | PR, 20 μM ADP, LTA (platelets; 2.75 h, All): 10 ± 9.2% | IPA, 5 μM ADP, LTA (platelets; 2.75 h, Ticagrelor at 0.5 h): 87 ± 7% | IPA, 20 μM ADP, LTA (platelets; 2.75 h, Ticagrelor at 0.5 h): 84 ± 15% | PR, 5 μM ADP, LTA (platelets; 2.75 h, Ticagrelor at 0.5 h): 6.7 ± 4.1% | PR, 20 μM ADP, LTA (platelets; 2.75 h, Ticagrelor at 0.5 h): 12 ± 11% | IPA, 5 μM ADP, LTA (platelets; 2.75 h, Ticagrelor at 1.25 h): 85 ± 15% | IPA, 20 μM ADP, LTA (platelets; 2.75 h, Ticagrelor at 1.25 h): 87 ± 15% | PR, 5 μM ADP, LTA (platelets; 2.75 h, Ticagrelor at 1.25 h): 4.8 ± 0.8% | PR, 20 μM ADP, LTA (platelets; 2.75 h, Ticagrelor at 1.25 h): 7.8 ± 7.2% | IPA, 5 μM ADP, LTA (platelets; 3 h, All): 86 ± 17% | IPA, 20 μM ADP, LTA (platelets; 3 h, All): 90 ± 9% | PR, 5 μM ADP, LTA (platelets; 3 h, All): 5.5 ± 5.2% | PR, 20 μM ADP, LTA (platelets; 3 h, All): 7.1 ± 6.3% | IPA, 5 μM ADP, LTA (platelets; 3 h, Ticagrelor at 0.5 h): 85 ± 15% | IPA, 20 μM ADP, LTA (platelets; 3 h, Ticagrelor at 0.5 h): 87 ± 10% | PR, 5 μM ADP, LTA (platelets; 3 h, Ticagrelor at 0.5 h): 8 ± 6.5% | PR, 20 μM ADP, LTA (platelets; 3 h, Ticagrelor at 0.5 h): 10 ± 7.6% | IPA, 5 μM ADP, LTA (platelets; 3 h, Ticagrelor at 1.25 h): 87 ± 21% | IPA, 20 μM ADP, LTA (platelets; 3 h, Ticagrelor at 1.25 h): 93 ± 7% | PR, 5 μM ADP, LTA (platelets; 3 h, Ticagrelor at 1.25 h): 3 ± 1.5% | PR, 20 μM ADP, LTA (platelets; 3 h, Ticagrelor at 1.25 h): 4.5 ± 3.4% | IPA, 5 μM ADP, LTA (platelets; 4 h, All): 88 ± 9% | IPA, 20 μM ADP, LTA (platelets; 4 h, All): 94 ± 4% | PR, 5 μM ADP, LTA (platelets; 4 h, All): 5.5 ± 3.3% | PR, 20 μM ADP, LTA (platelets; 4 h, All): 4.6 ± 3.6% | IPA, 5 μM ADP, LTA (platelets; 4 h, Ticagrelor at 0.5 h): 87 ± 5% | IPA, 20 μM ADP, LTA (platelets; 4 h, Ticagrelor at 0.5 h): 91 ± 4% | PR, 5 μM ADP, LTA (platelets; 4 h, Ticagrelor at 0.5 h): 7.3 ± 3.9% | PR, 20 μM ADP, LTA (platelets; 4 h, Ticagrelor at 0.5 h): 6.7 ± 3.7% | IPA, 5 μM ADP, LTA (platelets; 4 h, Ticagrelor at 1.25 h): 89 ± 12% | IPA, 20 μM ADP, LTA (platelets; 4 h, Ticagrelor at 1.25 h): 96 ± 4% | PR, 5 μM ADP, LTA (platelets; 4 h, Ticagrelor at 1.25 h): 3.7 ± 1% | PR, 20 μM ADP, LTA (platelets; 4 h, Ticagrelor at 1.25 h): 2.5 ± 1.9% | residual platelet reactivity (platelets; 12 hours after the last dose of ticagrelor, study day 5): 12±9% | residual platelet reactivity (platelets; at 2.5 hr, ticagrelor 180 mg given at 0.5 hr of 2 hr cangrelor infusion): 16±15% | IPA, 5 μM ADP, LTA (platelets; reference 5.25 h, All): 94 ± 5% | IPA, 20 μM ADP, LTA (platelets; reference 5.25 h, All): 95 ± 4% | PR, 5 μM ADP, LTA (platelets; reference 5.25 h, All): 3.1 ± 2.8% | PR, 20 μM ADP, LTA (platelets; reference 5.25 h, All): 4 ± 3.4% | IPA, 5 μM ADP, LTA (platelets; [1]): 92 ± 6% | IPA, 20 μM ADP, LTA (platelets; [1]): 92 ± 4% | PR, 5 μM ADP, LTA (platelets; [1]): 4.2 ± 2% | PR, 20 μM ADP, LTA (platelets; [1]): 5.8 ± 3.1% | IPA, 5 μM ADP, LTA (platelets; [2]): 97 ± 4% | IPA, 20 μM ADP, LTA (platelets; [2]): 97 ± 4% | PR, 5 μM ADP, LTA (platelets; [2]): 2 ± 2.3% | PR, 20 μM ADP, LTA (platelets; [2]): 2.2 ± 2.7% | extent of inhibition (platelets; [3]): 82±13% | residual platelet reactivity (platelets; [3]): 13±9.3% | extent of inhibition (platelets; [4]): 93±7% | residual platelet reactivity (platelets; [4]): 4.5±3.4%
